From patent US11420956B2, “Ureas having Androgen Receptor degradation activity and uses thereof” (ACCUTAR BIOTECHNOLOGY INC., priority 2019, dated 2022)

Target: T1, androgen receptor (AR) (Homo sapiens, UniProt P10275, T878A)
T1 construct: endogenous in cells; host or cells: LNCAP
T1 sequence (P10275 1-920 T878A): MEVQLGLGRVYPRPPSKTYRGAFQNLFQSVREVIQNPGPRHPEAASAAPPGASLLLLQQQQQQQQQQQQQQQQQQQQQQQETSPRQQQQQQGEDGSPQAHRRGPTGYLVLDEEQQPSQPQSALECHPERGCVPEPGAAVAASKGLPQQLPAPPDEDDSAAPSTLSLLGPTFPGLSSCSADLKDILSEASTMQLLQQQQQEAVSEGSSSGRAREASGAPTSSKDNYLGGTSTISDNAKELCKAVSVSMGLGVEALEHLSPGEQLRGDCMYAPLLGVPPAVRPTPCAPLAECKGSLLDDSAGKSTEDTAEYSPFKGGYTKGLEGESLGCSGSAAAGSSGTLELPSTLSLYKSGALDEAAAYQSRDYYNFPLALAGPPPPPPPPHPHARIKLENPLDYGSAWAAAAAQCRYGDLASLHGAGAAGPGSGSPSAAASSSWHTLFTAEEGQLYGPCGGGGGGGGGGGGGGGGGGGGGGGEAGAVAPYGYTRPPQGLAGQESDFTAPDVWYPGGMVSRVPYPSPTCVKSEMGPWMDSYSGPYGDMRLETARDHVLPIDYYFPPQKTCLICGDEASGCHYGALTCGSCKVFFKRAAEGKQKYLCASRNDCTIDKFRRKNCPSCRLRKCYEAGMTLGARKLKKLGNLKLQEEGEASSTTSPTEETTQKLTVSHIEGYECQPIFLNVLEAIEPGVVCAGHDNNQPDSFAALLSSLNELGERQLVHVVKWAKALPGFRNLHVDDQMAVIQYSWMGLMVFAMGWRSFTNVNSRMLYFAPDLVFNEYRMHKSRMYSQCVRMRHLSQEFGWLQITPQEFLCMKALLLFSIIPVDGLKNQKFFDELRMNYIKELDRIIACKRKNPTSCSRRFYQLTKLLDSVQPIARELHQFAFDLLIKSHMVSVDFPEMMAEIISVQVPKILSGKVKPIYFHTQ
Experiment: AR degradation in LNCAP cells (Western blot)
Type: cell-based
Conditions: 24 hours after administration
Description: LNCAP, VCAP and 22Rv1 cells were plated in 24-well plates at 1.5×10E5 cells/well in the RPMI growth medium containing 10% FBS and 1% Penicillin Streptomycin, and then incubated at 37° C. overnight. The following day, the test compound was administered to the cells by using 1000× compound stock solution prepared in DMSO at various concentrations. After administration of the compound, the cells were then incubated at 37° C. for 24 hours. Upon completion, the cells were washed with PBS and protein was collected in Laemmli sample buffer (1×; VWR International). Proteins in cell lysate were separated by SDS-PAGE and transferred to Odyssey nitrocellulose membranes (Licor) with iblot® dry blotting transfer system (ThermoFisher). Nonspecific binding was blocked by incubating membranes with Intercept Blocking Buffer (Licor) for 1 hour at room temperature with gentle shaking. The membranes were then incubated overnight at 4° C. with Primary antibodies rabbit anti-AR (1:1,000, Cell Signaling, 5153) and mouse anti-GAPDH (1:5,000, Santa Cruz Biotechnology, sc-47724) diluted in Intercept Blocking Buffer containing 0.1% Tween 20. After washing 3 times with TBS-T, the membranes were incubated with IRDye® […] goat anti-mouse IgG (1:20,000, Licor) or IRDye® […] goat anti-rabbit IgG (1:20,000, Licor) for 1 hour. After TBS-T washes, membranes were rinsed in TBS and scanned on Odyssey® CLx Imaging System (Licor). The bands were quantified using Image Studio™ Software (Licor).
Tables 5 and 6 summarize the androgen receptor (AR) degradative activity of exemplary compounds in LNCAP, VCAP and 22Rv1 cell lines 24 hours after administration. DC50: compound concentration needed for 50% target protein degradation.

| Structure (SMILES) | DC50 |
| --- | --- |
| C[C@@H]1CN(c2ccc(C#N)c(Cl)c2)[C@@H](C)CN1C(=O)Nc1ccc(N2CCC(CN3CCN(c4ccc5c(c4)C(=O)N(C4CCC(=O)NC4=O)C5=O)CC3)CC2)c(F)c1 (stereo partly drawn) [Compound 1-47, (2R,5S)-4-(3-chloro-4-cyanophenyl)-N-(4-(4-((4-(2-(2,6-dioxopiperidin-3-yl)-1,3-dioxoisoindolin-5-yl)piperazin-1-yl)methyl)piperidin-1-yl)-3-fluorophenyl)-2,5-dimethylpiperazine-1-carboxamide] | ≤ 10 nM |
| C[C@@H]1CN(c2ccc(C#N)c(Cl)c2)[C@@H](C)CN1C(=O)Nc1ccc(N2CCC(CN3CCN(c4cc5c(cc4F)C(=O)N([C@H]4CCC(=O)NC4=O)C5=O)CC3)CC2)nc1 [Compound 1-54, (2R,5S)-4-(3-chloro-4-cyanophenyl)-N-(6-(4-((4-(2-(2,6-dioxopiperidin-3-yl)-6-fluoro-1,3-dioxoisoindolin-5-yl)piperazin-1-yl)methyl)piperidin-1-yl)pyridin-3-yl)-2,5-dimethylpiperazine-1-carboxamide] | ≤ 10 nM |
| C[C@@H]1CN(c2ccc(C#N)c(Cl)c2)[C@@H](C)CN1C(=O)Nc1cnc(N2CCC(CN3CCN(c4ccc5c(c4)CN([C@H]4CCC(=O)NC4=O)C5=O)CC3)CC2)nc1 [Compound 1-51, (2R,5S)-4-(3-chloro-4-cyanophenyl)-N-(2-(4-((4-(2-((S)-2,6-dioxopiperidin-3-yl)-1-oxoisoindolin-5-yl)piperazin-1-yl)methyl)piperidin-1-yl)pyrimidin-5-yl)-2,5-dimethylpiperazine-1-carboxamide] | ≤ 10 nM |
| C[C@@H]1CN(c2ccc(C#N)c3ncccc23)[C@@H](C)CN1C(=O)Nc1cnc(N2CCC(CN3CCN(c4cc5c(cc4F)C(=O)N(C4CCC(=O)NC4=O)C5=O)CC3)CC2)nc1 (stereo partly drawn) [Compound 2-23, (2R,5S)-4-(8-cyanoquinolin-5-yl)-N-(2-(4-((4-(2-(2,6-dioxopiperidin-3-yl)-6-fluoro-1,3-dioxoisoindolin-5-yl)piperazin-1-yl)methyl)piperidin-1-yl)pyrimidin-5-yl)-2,5-dimethylpiperazine-1-carboxamide] | > 100 nM |
| C[C@H]1CN(C(=O)Nc2cnc(N3CCC(CN4CCN(c5ccc6c(c5)C(=O)N(C5CCC(=O)NC5=O)C6=O)CC4)CC3)nc2)CCN1c1ccc(C#N)c2ncccc12 (stereo partly drawn) [Compound 2-16, (3S)-4-(8-cyanoquinolin-5-yl)-N-(2-(4-((4-(2-(2,6-dioxopiperidin-3-yl)-1,3-dioxoisoindolin-5-yl)piperazin-1-yl)methyl)piperidin-1-yl)pyrimidin-5-yl)-3-methylpiperazine-1-carboxamide] | > 100 nM |
| C[C@@H]1CN(c2ccc(C#N)c(Cl)c2)[C@@H](C)CN1C(=O)Nc1ccc(N2CCC(CN3CCN(c4cc5c(cc4F)C(=O)N([C@H]4CCC(=O)NC4=O)C5)CC3)CC2)c(F)c1 [Compound 1-56, (2R,5S)-4-(3-chloro-4-cyanophenyl)-N-(4-(4-((4-(2-((S)-2,6-dioxopiperidin-3-yl)-6-fluoro-1-oxoisoindolin-5-yl)piperazin-1-yl)methyl)piperidin-1-yl)-3-fluorophenyl)-2,5-dimethylpiperazine-1-carboxamide] | ≤ 10 nM |
| C[C@@H]1CN(c2ccc(C#N)c3ncccc23)[C@@H](C)CN1C(=O)Nc1ccc(N2CCC(CN3CCN(c4ccc5c(c4)CN([C@H]4CCC(=O)NC4=O)C5=O)CC3)CC2)nc1 [Compound 2-11, (2R,5S)-4-(8-cyanoquinolin-5-yl)-N-(6-(4-((4-(2-((S)-2,6-dioxopiperidin-3-yl)-1-oxoisoindolin-5-yl)piperazin-1-yl)methyl)piperidin-1-yl)pyridin-3-yl)-2,5-dimethylpiperazine-1-carboxamide] | > 100 nM |
| C[C@@H]1CN(c2ccc(C#N)c3ncccc23)[C@@H](C)CN1C(=O)Nc1ccc(N2CCC(CN3CCN(c4ccc5c(c4)C(=O)N(C4CCC(=O)NC4=O)C5=O)CC3)CC2)c(F)c1 (stereo partly drawn) [Compound 2-12, (2R,5S)-4-(8-cyanoquinolin-5-yl)-N-(4-(4-((4-(2-(2,6-dioxopiperidin-3-yl)-1,3-dioxoisoindolin-5-yl)piperazin-1-yl)methyl)piperidin-1-yl)-3-fluorophenyl)-2,5-dimethylpiperazine-1-carboxamide] | > 100 nM |
| C[C@@H]1CN(c2ccc(C#N)c(C(F)(F)F)c2)[C@@H](C)CN1C(=O)Nc1cnc(N2CCC(CN3CCN(c4ccc5c(c4)CN([C@H]4CCC(=O)NC4=O)C5=O)CC3)CC2)nc1 [Compound 1-49, (2R,5S)-4-(4-cyano-3-(trifluoromethyl)phenyl)-N-(2-(4-((4-(2-((S)-2,6-dioxopiperidin-3-yl)-1-oxoisoindolin-5-yl)piperazin-1-yl)methyl)piperidin-1-yl)pyrimidin-5-yl)-2,5-dimethylpiperazine-1-carboxamide] | ≤ 10 nM |
| C[C@@H]1CN(c2ccc(C#N)c(C(F)(F)F)c2)[C@@H](C)CN1C(=O)Nc1ccc(N2CCC(CN3CCN(c4ccc5c(c4)CN([C@H]4CCC(=O)NC4=O)C5=O)CC3)CC2)c(F)c1 [Compound 1-50, (2R,5S)-4-(4-cyano-3-(trifluoromethyl)phenyl)-N-(4-(4-((4-(2-((S)-2,6-dioxopiperidin-3-yl)-1-oxoisoindolin-5-yl)piperazin-1-yl)methyl)piperidin-1-yl)-3-fluorophenyl)-2,5-dimethylpiperazine-1-carboxamide] | ≤ 10 nM |
| C[C@@H]1CN(c2ccc(C#N)c(Cl)c2)[C@@H](C)CN1C(=O)Nc1ccc(N2CCC(CN(C)C3CC(Oc4ccc5c(c4)C(=O)N(C4CCC(=O)NC4=O)C5=O)C3)CC2)nc1 (stereo partly drawn) [Compound 1-9, (2R,5S)-4-(3-chloro-4-cyanophenyl)-N-(6-(4-((((1r,3r)-3-((2-(2,6-dioxopiperidin-3-yl)-1,3-dioxoisoindolin-5-yl)oxy)cyclobutyl)(methyl)amino)methyl)piperidin-1-yl)pyridin-3-yl)-2,5-dimethylpiperazine-1-carboxamide] | ≤ 10 nM |
| CC(C)N(CC1CCN(c2ncc(NC(=O)N3C[C@H](C)N(c4ccc(C#N)c5ncccc45)C[C@H]3C)cn2)CC1)C1CC(Oc2ccc3c(c2)C(=O)N(C2CCC(=O)NC2=O)C3=O)C1 (stereo partly drawn) [Compound 2-14, (2R,5S)-4-(8-cyanoquinolin-5-yl)-N-(2-(4-((((1r,3r)-3-((2-(2,6-dioxopiperidin-3-yl)-1,3-dioxoisoindolin-5-yl)oxy)cyclobutyl)(isopropyl)amino)methyl)piperidin-1-yl)pyrimidin-5-yl)-2,5-dimethylpiperazine-1-carboxamide] | ≤ 10 nM |
| C[C@@H]1CN(c2ccc(C#N)c3ncccc23)[C@@H](C)CN1C(=O)Nc1cc(F)c(N2CCC(CN3CCN(c4ccc5c(c4)CN([C@H]4CCC(=O)NC4=O)C5=O)CC3)CC2)cc1F [Compound 2-18, (2R,5S)-4-(8-cyanoquinolin-5-yl)-N-(4-(4-((4-(2-((S)-2,6-dioxopiperidin-3-yl)-1-oxoisoindolin-5-yl)piperazin-1-yl)methyl)piperidin-1-yl)-2,5-difluorophenyl)-2,5-dimethylpiperazine-1-carboxamide] | > 100 nM |
| C[C@@H]1CN(c2ccc(C#N)c(Cl)c2)[C@@H](C)CN1C(=O)Nc1ccc(N2CCC(CCN3CCN(c4ccc5c(c4)C(=O)N(C4CCC(=O)NC4=O)C5=O)CC3)CC2)nc1 (stereo partly drawn) [Compound 1-19, (2R,5S)-4-(3-chloro-4-cyanophenyl)-N-(6-(4-(2-(4-(2-(2,6-dioxopiperidin-3-yl)-1,3-dioxoisoindolin-5-yl)piperazin-1-yl)ethyl)piperidin-1-yl)pyridin-3-yl)-2,5-dimethylpiperazine-1-carboxamide] | ≤ 10 nM |
